Patent US5965699A (priority 1996, dated 1999)
Values joined by “and” are separate entries in the source; they are usually repeats but may differ in a detail not shown here. Equal entries are not always repeated. Where two headings read alike, the source gives them in different places. Where a SMILES comes first, the peptide text is derived from it. [ ]: non-standard residue; d: D form. Nle = CCCC[C@H](N)C(=O)O; Abu = CC[C@H](N)C(=O)O

Biological target: botox A (Clostridium botulinum, UniProt P0DPI1)
Sequence (P0DPI1 2-448 limits assumed): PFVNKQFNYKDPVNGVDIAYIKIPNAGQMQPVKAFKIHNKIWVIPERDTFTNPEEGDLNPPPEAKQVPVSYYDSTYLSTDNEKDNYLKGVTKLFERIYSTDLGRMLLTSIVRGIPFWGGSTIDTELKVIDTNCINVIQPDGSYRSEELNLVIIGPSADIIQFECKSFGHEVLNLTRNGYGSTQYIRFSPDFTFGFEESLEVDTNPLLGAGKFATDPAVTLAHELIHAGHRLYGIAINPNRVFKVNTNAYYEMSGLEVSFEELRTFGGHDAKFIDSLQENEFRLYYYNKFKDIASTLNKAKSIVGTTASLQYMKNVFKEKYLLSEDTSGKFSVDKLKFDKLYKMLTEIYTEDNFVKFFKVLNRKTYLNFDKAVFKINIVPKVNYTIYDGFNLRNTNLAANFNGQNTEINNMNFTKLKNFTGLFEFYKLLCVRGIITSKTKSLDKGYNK
Format: biochemical
Parameters: Rate (initial rate of peptide hydrolysis) / Rate (initial rate of hydrolysis) In AcBSA: unit not given here

| Compound | hydrolysis by botox A, described in words | kcat (in 1/s) | Km (read-out: Km) | Relative Rate (initial hydrolysis rates relative to peptide [1-17]) | also measured |
| --- | --- | --- | --- | --- | --- |
| CC[C@H](NC(=O)[C@H](CCC(=O)O)NC(=O)[C@H](CC(=O)O)NC(=O)[C@@H](NC(=O)[C@H](CCCNC(=N)N)NC(=O)[C@@H](NC(=O)[C@H](CCCCN)NC(=O)[C@H](CC(N)=O)NC(=O)[C@H](CO)NC(C)=O)[C@@H](C)O)[C@@H](C)CC)C(=O)N[C@@H](CC(N)=O)C(=O)N[C@@H](CCC(N)=O)C(=O)N[C@@H](CCCNC(=N)N)C(=O)N[C@@H](C)C(=O)N[C@H](C(=O)N[C@@H](CCCCN)C(=O)N[C@@H](CCSC)C(=O)N[C@@H](CC(C)C)C(N)=O)[C@@H](C)O [A9B, S N K T R I D E B N Q R A T K M L] (Ac-SNKTRIDE[Abu]NQRATKML-NH2) | still a good substrate | 11 ± 1 | 1100 ± 100 µM |  | decrease in kcat compared with peptide [1-17]: about 75% |
| CC[C@H](NC(=O)[C@H](CCCNC(=N)N)NC(=O)[C@H](CCC(N)=O)NC(=O)[C@H](CC(N)=O)NC(=O)[C@H](C)NC(=O)[C@H](CCC(=O)O)NC(=O)[C@H](CC(=O)O)NC(=O)[C@@H](NC(=O)[C@H](CCCNC(=N)N)NC(=O)[C@@H](NC(=O)[C@H](CCCCN)NC(=O)[C@H](CC(N)=O)NC(=O)[C@H](CO)NC(C)=O)[C@@H](C)O)[C@@H](C)CC)C(=O)N[C@H](C(=O)N[C@@H](CCCCN)C(=O)N[C@@H](CCSC)C(=O)N[C@@H](CC(C)C)C(N)=O)[C@@H](C)O [A13B, S N K T R I D E A N Q R B T K M L] (Ac-SNKTRIDEANQR[Abu]TKML-NH2) |  | 39 ± 2 | 1800 ± 100 µM | .79 |  |
| CCCC[C@H](NC(=O)[C@H](CCCCN)NC(=O)[C@@H](NC(=O)[C@H](C)NC(=O)[C@H](CCCNC(=N)N)NC(=O)[C@H](CCC(N)=O)NC(=O)[C@H](CC(N)=O)NC(=O)[C@H](C)NC(=O)[C@H](CCC(=O)O)NC(=O)[C@H](CC(=O)O)NC(=O)[C@@H](NC(=O)[C@H](CCCNC(=N)N)NC(=O)[C@@H](NC(=O)[C@H](CCCCN)NC(=O)[C@H](CC(N)=O)NC(=O)[C@H](CO)NC(C)=O)[C@@H](C)O)[C@@H](C)CC)[C@@H](C)O)C(=O)N[C@@H](CC(C)C)C(N)=O [M16X, S N K T R I D E A N Q R A T K X L] (Ac-SNKTRIDEANQRATK[Nle]L-NH2) | hydrolyzed somewhat faster than the native-sequence peptide | 30 ± 1 | 580 ± 20 µM |  |  |
| CC[C@H](NC(=O)[C@H](CC(N)=O)NC(=O)[C@H](C)NC(=O)[C@H](CCC(=O)O)NC(=O)[C@H](CC(=O)O)NC(=O)[C@@H](NC(=O)[C@H](CCCNC(=N)N)NC(=O)[C@@H](NC(=O)[C@H](CCCCN)NC(=O)[C@H](CC(N)=O)NC(=O)[C@H](CO)NC(C)=O)[C@@H](C)O)[C@@H](C)CC)C(=O)N[C@@H](CCCNC(=N)N)C(=O)N[C@@H](C)C(=O)N[C@H](C(=O)N[C@@H](CCCCN)C(=O)N[C@@H](CCSC)C(=O)N[C@@H](CC(C)C)C(N)=O)[C@@H](C)O [Q11B, S N K T R I D E A N B R A T K M L] (Ac-SNKTRIDEAN[Abu]RATKML-NH2) | slowed but did not eliminate hydrolysis | 7.7 ± 0.2 | 830 ± 50 µM |  |  |
| CC[C@H](NC(=O)[C@H](C)NC(=O)[C@H](CCCNC(=N)N)NC(=O)[C@H](CCC(N)=O)NC(=O)[C@H](CC(N)=O)NC(=O)[C@H](C)NC(=O)[C@H](CCC(=O)O)NC(=O)[C@H](CC(=O)O)NC(=O)[C@@H](NC(=O)[C@H](CCCNC(=N)N)NC(=O)[C@@H](NC(=O)[C@H](CCCCN)NC(=O)[C@H](CC(N)=O)NC(=O)[C@H](CO)NC(C)=O)[C@@H](C)O)[C@@H](C)CC)C(=O)N[C@@H](CCCCN)C(=O)N[C@@H](CCSC)C(=O)N[C@@H](CC(C)C)C(N)=O [T14B, S N K T R I D E A N Q R A B K M L] (Ac-SNKTRIDEANQRA[Abu]KML-NH2) | good substrate | 35 ± 2 | 1300 ± 100 µM | 1.20 |  |
| CC[C@H](NC(=O)[C@H](CCCNC(=N)N)NC(=O)[C@H](CC(N)=O)NC(=O)[C@H](CO)NC(C)=O)C(=O)N[C@@H](CCCNC(=N)N)C(=O)N[C@H](C(=O)N[C@@H](CC(=O)O)C(=O)N[C@@H](CCC(=O)O)C(=O)N[C@@H](C)C(=O)N[C@@H](CC(N)=O)C(=O)N[C@@H](CCC(N)=O)C(=O)N[C@@H](CCCNC(=N)N)C(=O)N[C@@H](C)C(=O)N[C@H](C(=O)N[C@@H](CCCNC(=N)N)C(=O)N[C@@H](CCSC)C(=O)N[C@@H](CC(C)C)C(N)=O)[C@@H](C)O)[C@@H](C)CC [peptide 3, S N R B R I D E A N Q R A T R M L] (Ac-SNR[Abu]RIDEANQRATRML-NH2) |  |  |  |  | Kcat In AcBSA: 58 s⁻¹; Kcat In BSA: 75 s⁻¹; Rate (initial rate of hydrolysis) In AcBSA: 18; Rate (initial rate of hydrolysis) In BSA: 16; Rate (initial rate of peptide hydrolysis): 15.8 ± 0.8; Relative Rate: 2.1; Km (read-out: Km In AcBSA): 320 µM; Km (read-out: Km In BSA): 910 µM |
| CC[C@H](NC(=O)[C@H](CC(=O)O)NC(=O)[C@@H](NC(=O)[C@H](CCCNC(=N)N)NC(=O)[C@@H](NC(=O)[C@H](CCCNC(=N)N)NC(=O)[C@H](CC(N)=O)NC(=O)[C@H](CO)NC(C)=O)[C@@H](C)O)[C@@H](C)CC)C(=O)N[C@@H](C)C(=O)N[C@@H](CC(N)=O)C(=O)N[C@@H](CCC(N)=O)C(=O)N[C@@H](CCCNC(=N)N)C(=O)N[C@@H](C)C(=O)N[C@H](C(=O)N[C@@H](CCCNC(=N)N)C(=O)N[C@@H](CCSC)C(=O)N[C@@H](CC(C)C)C(N)=O)[C@@H](C)O [peptide 5, S N R T R I D B A N Q R A T R M L] (Ac-SNRTRID[Abu]ANQRATRML-NH2) |  |  |  |  | Kcat In AcBSA: 70 s⁻¹; Kcat In BSA: 69 s⁻¹; Rate (initial rate of hydrolysis) In AcBSA: 21; Rate (initial rate of hydrolysis) In BSA: 13; Rate (initial rate of peptide hydrolysis): 12.9 ± 0.3; Relative Rate: 1.7; specific activity of type A toxin against the peptide: 21 µmol/min/mg; Km (read-out: Km In AcBSA): 330 µM; Km (read-out: Km In BSA): 740 µM |
| CC[C@H](NC(=O)[C@H](CC(=O)O)NC(=O)[C@@H](NC(=O)[C@H](CCCNC(=N)N)NC(=O)[C@H](CC)NC(=O)[C@H](CCCNC(=N)N)NC(=O)[C@H](CC(N)=O)NC(=O)[C@H](CO)NC(C)=O)[C@@H](C)CC)C(=O)N[C@@H](C)C(=O)N[C@@H](CC(N)=O)C(=O)N[C@@H](CCC(N)=O)C(=O)N[C@@H](CCCNC(=N)N)C(=O)N[C@@H](C)C(=O)N[C@H](C(=O)N[C@@H](CCCNC(=N)N)C(=O)N[C@@H](CCSC)C(=O)N[C@@H](CC(C)C)C(N)=O)[C@@H](C)O [peptide 6, S N R B R I D B A N Q R A T R M L] (Ac-SNR[Abu]RID[Abu]ANQRATRML-NH2) | more than three times faster |  |  |  | Kcat In AcBSA: 86 s⁻¹; Kcat In BSA: 89 s⁻¹; Rate (initial rate of hydrolysis) In AcBSA: 25; Rate (initial rate of hydrolysis) In BSA: 24; Rate (initial rate of peptide hydrolysis): 25.3 ± 0.7; Relative Rate: 3.3; Km (read-out: Km In AcBSA): 400 µM; Km (read-out: Km In BSA): 520 µM |
| CC[C@H](NC(=O)[C@H](CCCNC(=N)N)NC(=O)[C@H](CC(N)=O)NC(=O)[C@H](CO)NC(C)=O)C(=O)N[C@@H](CCCNC(=N)N)C(=O)N[C@H](C(=O)N[C@@H](CC(=O)O)C(=O)N[C@@H](CCC(N)=O)C(=O)N[C@@H](C)C(=O)N[C@@H](CC(N)=O)C(=O)N[C@@H](CCC(N)=O)C(=O)N[C@@H](CCCNC(=N)N)C(=O)N[C@@H](C)C(=O)N[C@H](C(=O)N[C@@H](CCCNC(=N)N)C(=O)N[C@@H](CCSC)C(=O)N[C@@H](CC(C)C)C(N)=O)[C@@H](C)O)[C@@H](C)CC [peptide 7, S N R B R I D Q A N Q R A T R M L] (Ac-SNR[Abu]RIDQANQRATRML-NH2) |  |  |  |  | Kcat In AcBSA: 73 s⁻¹; Rate (initial rate of hydrolysis) In AcBSA: 22; Rate (initial rate of hydrolysis) In BSA: 14; Rate (initial rate of peptide hydrolysis): 14.1 ± 0.7; Relative Rate: 1.9; Km (read-out: Km In AcBSA): 310 µM |
| Ac-SNKTRIDEANARATKML-NH2 [Q11A, S N K T R I D E A N A R A T K M L] | slowed but did not eliminate hydrolysis |  |  | 0.19 |  |
| Ac-SNKTRIDEANNRATKML-NH2 [Q11N, S N K T R I D E A N N R A T K M L] | slowed but did not eliminate hydrolysis | 19 ± 3 | 750 ± 80 µM |  |  |
| Ac-SNKTRIDEANQAATKML-NH2 [R12A, S N K T R I D E A N Q A A T K M L] |  |  |  | < 0.02 |  |
| Ac-SNKTRIDEANQRASKML-NH2 [T14S, S N K T R I D E A N Q R A S K M L] | significantly lower hydrolysis rate |  | ~1200 µM | 0.26 | Km: 1200 µM; kcat: ~9.0 and 9.0 sec^-1 |
| Ac-SNKTRIDEANQRATAML-NH2 [K15A, S N K T R I D E A N Q R A T A M L] | significantly lower hydrolysis rate | ~8.0 | ~1000 µM |  |  |
| Ac-SNKTRIDEANQRATKAL-NH2 [M16A, S N K T R I D E A N Q R A T K A L] |  | 25 ± 1 | 1900 ± 100 µM | .38 | decrease in kcat compared with peptide [1-17]: ~50% |
| Ac-SNKTRIDEANQRATKM-NH2 [[1-16], S N K T R I D E A N Q R A T K M] | excellent substrate | 6 ± 4 | 1600 ± 100 µM | .17 |  |
| Ac-SNKTRIDEANQRATKML-NH2 [[1-17], S N K T R I D E A N Q R A T K M L] |  | 47 ± 2 | 1700 ± 100 µM |  | Kcat In AcBSA: 41 s⁻¹; Kcat In BSA: 47 s⁻¹; Rate (initial rate of hydrolysis) In AcBSA: 10; Rate (initial rate of hydrolysis) In BSA: 8; Rate (initial rate of peptide hydrolysis): 7.6 ± 0.3; Relative Rate: 1.0; Km (read-out: Km In AcBSA): 590 µM |
| Ac-SNKTRIDEAQQRATKML-NH2 [N10Q, S N K T R I D E A Q Q R A T K M L] | No hydrolysis |  |  |  |  |
| Ac-SNKTRIDQANQRATKML-NH2 [E8Q, S N K T R I D Q A N Q R A T K M L] | doubling of the rate of hydrolysis | 51 ± 3 | 750 ± 40 µM | 2.08 | decrease in Km compared with peptide [1-17]: about 50% |
